Drawing on publication PMC8935241, “Ebselen enhances insulin sensitivity and decreases oxidative stress by inhibiting SHIP2 and protects from inflammation in diabetic mice” (International Journal of Biological Sciences, 2022), this text covers IC50 for 1 compound.

The target of assay [1] is T1, SHIP1 (Src homology 2 domain-containing inositol-5-phosphatase 1) (Homo sapiens, UniProt Q92835).
T1 construct: gene INPP5D; Recombinant His-tagged human SHIP1 phosphatase domain
T1 sequence (Q92835 399-715 limits assumed): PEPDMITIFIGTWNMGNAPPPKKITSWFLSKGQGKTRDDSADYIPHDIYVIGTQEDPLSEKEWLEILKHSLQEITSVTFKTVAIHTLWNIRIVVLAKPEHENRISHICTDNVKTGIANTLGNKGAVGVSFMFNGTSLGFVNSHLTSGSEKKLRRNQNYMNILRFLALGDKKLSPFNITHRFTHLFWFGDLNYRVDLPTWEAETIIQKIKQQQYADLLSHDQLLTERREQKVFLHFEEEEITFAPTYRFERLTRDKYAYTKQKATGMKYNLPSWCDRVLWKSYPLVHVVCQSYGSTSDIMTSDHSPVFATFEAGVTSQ
Kind of assay: malachite green phosphate assay with PI([…])P3 diC8 on recombinant phosphatase domain. The assay is classed as biochemical.

Assay [2] deals with T2, SHIP2 (Src homology 2 domain-containing inositol-5-phosphatase 2) (Homo sapiens, UniProt O15357).
T2 construct: gene INPPL1; Recombinant His-tagged human SHIP2 phosphatase domain
T2 sequence (O15357 419-732 limits assumed): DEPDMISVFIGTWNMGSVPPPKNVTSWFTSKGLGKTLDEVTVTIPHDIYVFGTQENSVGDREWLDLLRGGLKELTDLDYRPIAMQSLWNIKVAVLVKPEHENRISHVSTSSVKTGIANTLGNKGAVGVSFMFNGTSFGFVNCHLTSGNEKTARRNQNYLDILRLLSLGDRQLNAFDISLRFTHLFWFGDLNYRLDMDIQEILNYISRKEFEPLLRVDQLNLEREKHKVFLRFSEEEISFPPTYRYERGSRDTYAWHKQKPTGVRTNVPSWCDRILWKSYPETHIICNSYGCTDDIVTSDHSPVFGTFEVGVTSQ
The assay is described as above. The class given is biochemical.

pIC50: −log10 of the molar value.

Take `O=c1c2ccccc2[se]n1-c1ccccc1` [ebselen]: the figures for the negative logarithm of the IC50 (pIC50) in assay [1] and in assay [2] were 5.74 and 6.32, respectively.
